Source: PMC10535318, “Benzimidazole-Based Schiff Base Hybrid Scaffolds: A Promising Approach to Develop Multi-Target Drugs for Alzheimer’s Disease” (Pharmaceuticals, 2023)
Like-named read-outs stand apart in the source and are kept apart here.

Experiments:
[1] = molecular target: T1, butyrylcholinesterase (BuChE) (Homo sapiens, UniProt P06276); test: biochemical
T1 construct: purchased Sigma-Aldrich (Steinheim, Germany)
Description: (§1) All chemicals and reagents employed in the study were obtained from Merck or Sigma-Aldrich (St. Louis, MO, USA) (Darmstadt, Germany). Acetylcholinesterase (E.C.3.1.1.7) and butyrylcholinesterase (E.C. 3.1.1.8) were procured from Sigma–Aldrich (Steinheim, Germany). The ^1H NMR and ^13C NMR spectra were recorded using a Bruker FT-NMR spectrometer operating at the digital frequencies of 600 and 150 MHz (Bioscience, Bruker, Billerica, MA, USA). Mass spectra were acquired utilizing a Shimadzu LCMS-IT-TOF system (Kyoto, Japan) employing the electrospray ionization (ESI) technique. The purity of synthesized derivatives was checked through thin-layer chromatography using silica gel 60 F254 (Merck, KGaA, Darmstadt, Germany).
(§2) The study was carried out following the guidelines outlined in our previously published study.

[2] = molecular target: T2, acetylcholinesterase (AChE) (Homo sapiens, UniProt P22303); test: biochemical
T2 construct: purchased Sigma-Aldrich (Steinheim, Germany)
T2 sequence (P22303 32-614, species assumed): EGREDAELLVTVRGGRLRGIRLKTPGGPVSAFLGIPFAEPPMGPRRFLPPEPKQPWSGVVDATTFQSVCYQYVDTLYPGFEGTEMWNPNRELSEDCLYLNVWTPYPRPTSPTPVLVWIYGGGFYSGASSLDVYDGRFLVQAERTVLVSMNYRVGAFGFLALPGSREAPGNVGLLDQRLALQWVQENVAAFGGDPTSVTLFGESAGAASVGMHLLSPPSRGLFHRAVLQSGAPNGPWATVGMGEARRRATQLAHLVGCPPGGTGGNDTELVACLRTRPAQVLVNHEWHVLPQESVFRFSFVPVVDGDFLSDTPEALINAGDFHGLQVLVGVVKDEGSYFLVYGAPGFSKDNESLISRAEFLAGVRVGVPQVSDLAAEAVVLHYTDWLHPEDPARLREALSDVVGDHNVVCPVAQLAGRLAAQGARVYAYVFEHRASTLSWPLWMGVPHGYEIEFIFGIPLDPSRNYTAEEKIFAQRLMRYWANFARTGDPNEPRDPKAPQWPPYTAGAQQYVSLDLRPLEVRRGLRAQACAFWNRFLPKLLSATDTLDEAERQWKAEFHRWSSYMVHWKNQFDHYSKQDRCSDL
Description: as §1, §2

[3] = in vitro, value ± standard error mean, read-out: BuChE Inhibition IC50 ± SEM
[4] = in vitro, value ± standard error mean, read-out: AChE Inhibition IC50 ± SEM

T1 sequence (P06276 29-602): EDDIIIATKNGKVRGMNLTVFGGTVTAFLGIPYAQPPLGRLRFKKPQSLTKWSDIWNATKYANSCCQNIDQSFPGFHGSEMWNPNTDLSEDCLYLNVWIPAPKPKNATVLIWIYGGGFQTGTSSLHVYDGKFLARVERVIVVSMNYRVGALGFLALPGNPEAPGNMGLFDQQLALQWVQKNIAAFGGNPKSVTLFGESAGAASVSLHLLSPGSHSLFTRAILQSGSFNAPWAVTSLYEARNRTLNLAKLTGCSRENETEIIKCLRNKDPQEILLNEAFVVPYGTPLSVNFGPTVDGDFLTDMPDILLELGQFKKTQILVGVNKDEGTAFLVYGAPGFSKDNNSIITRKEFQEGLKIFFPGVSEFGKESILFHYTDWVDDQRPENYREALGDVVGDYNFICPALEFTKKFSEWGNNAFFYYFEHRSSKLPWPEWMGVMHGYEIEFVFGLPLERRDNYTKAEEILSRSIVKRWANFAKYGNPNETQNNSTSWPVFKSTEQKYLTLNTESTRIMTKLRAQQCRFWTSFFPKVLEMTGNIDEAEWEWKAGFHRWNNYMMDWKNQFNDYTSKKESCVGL

Row | SMILES | IC50 [1] | IC50 [2] | IC50 [1, 3] | IC50 [2, 4]
1 | O=[N+]([O-])c1ccc(/C(CSc2nc3ccccc3[nH]2)=N/C2=CC=C(Nc3ccc([N+](=O)[O-])cc3O)C2)cc1 [Compound 1, (Z)-2-((4-((2-((1H-benzo[d]imidazol-2-yl)thio)-1-(4-nitrophenyl)ethylidene)amino)cyclopenta-1,3-dien-1-yl)amino)-5-nitrophenol] | 249 ± 10.9 µM | 214 ± 11.6 µM | – | –
2 | Cc1cc([N+](=O)[O-])ccc1/C(CSc1nc2ccccc2[nH]1)=N/C1=CC=C(Nc2ccc([N+](=O)[O-])cc2O)C1 [Compound 2, (Z)-2-((4-((2-((1H-benzo[d]imidazol-2-yl)thio)-1-(2-methyl-4-nitrophenyl)ethylidene)amino)cyclopenta-1,3-dien-1-yl)amino)-5-nitrophenol] | 204 ± 8.2 µM | 199 ± 10.2 µM | – | –
3 | O=[N+]([O-])c1ccc(NC2=CC=C(/N=C(\CSc3nc4ccccc4[nH]3)c3ccccc3[N+](=O)[O-])C2)c(O)c1 [Compound 3, (Z)-2-((4-((2-((1H-benzo[d]imidazol-2-yl)thio)-1-(2-nitrophenyl)ethylidene)amino)cyclopenta-1,3-dien-1-yl)amino)-5-nitrophenol] | 131 ± 9.7 µM | 124 ± 10.2 µM | – | –
4 | Cc1ccc(/C(CSc2nc3ccccc3[nH]2)=N/C2=CC=C(Nc3ccc([N+](=O)[O-])cc3O)C2)cc1 [Compound 4, (Z)-2-((4-((2-((1H-benzo[d]imidazol-2-yl)thio)-1-(p-tolyl)ethylidene)amino)cyclopenta-1,3-dien-1-yl)amino)-5-nitrophenol] | – | – | 285 ± 8.2 µM | 274 ± 7.6 µM
5 | O=[N+]([O-])c1ccc(NC2=CC=C(/N=C(\CSc3nc4ccccc4[nH]3)c3ccc(Cl)c(Cl)c3)C2)c(O)c1 [Compound 5, (Z)-2-((4-((2-((1H-benzo[d]imidazol-2-yl)thio)-1-(3,4-dichlorophenyl)ethylidene)amino)cyclopenta-1,3-dien-1-yl)amino)-5-nitrophenol] | – | – | 179 ± 6.7 µM | 169 ± 7.7 µM
6 | O=[N+]([O-])c1ccc(NC2=CC=C(/N=C(\CSc3nc4ccccc4[nH]3)c3ccc([N+](=O)[O-])cc3Br)C2)c(O)c1 [Compound 6, (Z)-2-((4-((2-((1H-benzo[d]imidazol-2-yl)thio)-1-(2-bromo-4-nitrophenyl)ethylidene)amino)cyclopenta-1,3-dien-1-yl)amino)-5-nitrophenol] | 274 ± 13.8 µM | 226 ± 10.1 µM | – | –
7 | O=[N+]([O-])c1ccc(NC2=CC=C(/N=C(\CSc3nc4ccccc4[nH]3)c3ccccc3Br)C2)c(O)c1 [Compound 7, (Z)-2-((4-((2-((1H-benzo[d]imidazol-2-yl)thio)-1-(2-bromophenyl)ethylidene)amino)cyclopenta-1,3-dien-1-yl)amino)-5-nitrophenol] | – | – | 326 ± 13.1 µM | 314 ± 12.8 µM
8 | Cc1ccccc1/C(CSc1nc2ccccc2[nH]1)=N/C1=CC=C(Nc2ccc([N+](=O)[O-])cc2O)C1 [Compound 8, (Z)-2-((4-((2-((1H-benzo[d]imidazol-2-yl)thio)-1-(o-tolyl)ethylidene)amino)cyclopenta-1,3-dien-1-yl)amino)-5-nitrophenol] | – | – | 304 ± 13.8 µM | 291 ± 12.6 µM
9 | COc1ccc(/C(CSc2nc3ccccc3[nH]2)=N/C2=CC=C(Nc3cccc([N+](=O)[O-])c3)C2)cc1O [Compound 9, (Z)-5-(2-((1H-benzo[d]imidazol-2-yl)thio)-1-((4-((3-nitrophenyl)amino)cyclopenta-1,3-dien-1-yl)imino)ethyl)-2-methoxyphenol] | – | – | 181 ± 8.5 µM | 174 ± 6.76 µM
10 | O=[N+]([O-])c1ccc(NC2=CC=C(/N=C(\CSc3nc4ccccc4[nH]3)c3ccccc3)C2)c(O)c1 [Compound 10, (Z)-2-((4-((2-((1H-benzo[d]imidazol-2-yl)thio)-1-phenylethylidene)amino)cyclopenta-1,3-dien-1-yl)amino)-5-nitrophenol] | – | – | 376 ± 12.8 µM | 343 ± 10.6 µM
11 | O=[N+]([O-])c1ccc(/C(CSc2nc3ccccc3[nH]2)=N/C2=CC=C(Nc3cccc([N+](=O)[O-])c3)C2)cc1 [Compound 11, (Z)-N-(4-((2-((1H-benzo[d]imidazol-2-yl)thio)-1-(4-nitrophenyl)ethylidene)amino)cyclopenta-1,3-dien-1-yl)-3-nitroaniline] | 274 ± 9.1 µM | 268 ± 11.7 µM | – | –
12 | Cc1ccc(/C(CSc2nc3ccccc3[nH]2)=N/C2=CC=C(Nc3cccc([N+](=O)[O-])c3)C2)cc1 [Compound 12, (Z)-N-(4-((2-((1H-benzo[d]imidazol-2-yl)thio)-1-(p-tolyl)ethylidene)amino)cyclopenta-1,3-dien-1-yl)-3-nitroaniline] | – | – | 318 ± 9.8 µM | 308 ± 8.8 µM
13 | Cc1cccc(/C(CSc2nc3ccccc3[nH]2)=N/C2=CC=C(Nc3cccc([N+](=O)[O-])c3)C2)c1 [Compound 13, (Z)-N-(4-((2-((1H-benzo[d]imidazol-2-yl)thio)-1-(m-tolyl)ethylidene)amino)cyclopenta-1,3-dien-1-yl)-3-nitroaniline] | – | – | 354 ± 12.7 µM | 321 ± 13.5 µM
14 | Cc1ccccc1/C(CSc1nc2ccccc2[nH]1)=N/C1=CC=C(Nc2cccc([N+](=O)[O-])c2)C1 [Compound 14, (Z)-N-(4-((2-((1H-benzo[d]imidazol-2-yl)thio)-1-(o-tolyl)ethylidene)amino)cyclopenta-1,3-dien-1-yl)-3-nitroaniline] | – | – | 311 ± 12.3 µM | 289 ± 11.5 µM
15 | Cc1cc([N+](=O)[O-])ccc1/C(CSc1nc2ccccc2[nH]1)=N/C1=CC=C(Nc2cccc([N+](=O)[O-])c2)C1 [Compound 15, (Z)-N-(4-((2-((1H-benzo[d]imidazol-2-yl)thio)-1-(2-methyl-4-nitrophenyl)ethylidene)amino)cyclopenta-1,3-dien-1-yl)-3-nitroaniline] | 221 ± 8.7 µM | 217 ± 8.28 µM | – | –
16 | O=[N+]([O-])c1cccc(NC2=CC=C(/N=C(\CSc3nc4ccccc4[nH]3)c3ccccc3Br)C2)c1 [Compound 17, (Z)-N-(4-((2-((1H-benzo[d]imidazol-2-yl)thio)-1-(2-bromophenyl)ethylidene)amino)cyclopenta-1,3-dien-1-yl)-3-nitroaniline] | – | – | 269 ± 9.6 µM | 234 ± 10.1 µM
17 | O=[N+]([O-])c1cccc(NC2=CC=C(/N=C(\CSc3nc4ccccc4[nH]3)c3ccc([N+](=O)[O-])cc3Br)C2)c1 [Compound 18, (Z)-N-(4-((2-((1H-benzo[d]imidazol-2-yl)thio)-1-(2-bromo-4-nitrophenyl)ethylidene)amino)cyclopenta-1,3-dien-1-yl)-3-nitroaniline] | 247 ± 9.1 µM | 214 ± 8.2 µM | – | –
